This note sets out measurements from patent publication US20050180982A1, “Cadherin-11 expression, an assay and treatment for cellular invasiveness” (THE UNIVERSITY OF BRITISH COLUMBIA, priority 1998, published 2005).

Series [1] has as its system cad-11 RNA transcript in human granulosa cells. The series can be described thus: Specificity of antisense in granulosa cells, Northern blot, cad-11 probe. It counts as cell-based. Set-up: dose or concentration left out as unconfirmed. To be noted: 24 hours, dose-dependent manner for OB-1. Here is the method: (§1) In order to determine the specificity of OB-1, the effect of OB-1 was determined in human granulosa cells. Human granulosa cells express three cadherin subtypes (cad-11, cad-6 and N-cad) as they undergo spontaneous luteinization in culture. Granulosa cells which had been cultured for 36 hours were treated with OB-1 or OB-3 (0.5-5 M). The cultures were maintained for a further 24 hours, after which the cells were harvested for Northern analysis. Northern blots were probed with cad-11, cad-6, or N-cadherin (neural cadherin) cDNA probes as previously described. OB-1 caused a reduction in the levels of the cad-11 RNA transcript in a dose-dependent manner but had no effect on cad-6 or N-cadherin mRNA levels. In contrast.

In series [2] the test system is cad-6 mRNA in human granulosa cells. The series can be described thus: Specificity of antisense in granulosa cells, Northern blot, cad-6 probe. The series is classed as cell-based. The conditions noted are these: 0.5-5 M, 24 hours. Here is the method:
as §1

For series [3], the system named is N-cadherin mRNA in human granulosa cells. The series can be described thus: Specificity of antisense in granulosa cells, Northern blot, N-cadherin probe. It counts as cell-based. The conditions noted are these: 0.5-5 M, 24 hours. As to the method: as §1
For series [4], the system named is Cos-1 cells transfected with the steroid acute regulatory protein. As to the kind of experiment: Non-specific effects on cell number and steroidogenic capacity in Cos-1 cells. More on the design: cell number (Coulter cell counter): dose or concentration left out as unconfirmed. It counts as cell-based. As to the method:
Non-specific effects of the antisense oligonucleotides on cell viability and the steroidogenic capacity of cells was determined using Cos-1 cells transfected with the steroid acute regulatory protein (from Dr. J. F. Strauss, III. University of Pennsylvania, Philadelphia, Pa.). […] The COS-1 cells were cultured in the presence or absence of varying concentrations of OB-1 OR OB-3 (0.5-5 M) for 48 hours. The cell number present in each culture was determined using a Coulter™ cell counter and P4 concentrations present in the culture medium using a Progesterone RIA™ kit. As determined by these parameters.

Series [5] concerns cytotrophoblasts isolated from term placenta. As to the kind of experiment: Morphology of cytotrophoblasts by light microscopy and indirect immunofluorescence. To be noted: indirect immunofluorescence for E-cadherin. The series is classed as cell-based, human. The source says:
The effect of OB-1 and OB-3 on the morphology of the cytotrophoblast was examined by light microscopy and indirect immunofluoresence.

For a further series, the system named is villous cytotrophoblasts. The series can be described thus: Reversibility of oligonucleotide effects on villous cytotrophoblasts. It counts as cell-based, human. The conditions noted are these: 48 hours with oligonucleotide, washed, further 24 hours. As to the method:
To determine whether the effects of OB-1 on villous cytotrophoblasts are reversible, cells were cultured in the presence of OB-1 or OB-3 for 48 hours. The cells were washed thoroughly with PBS. The culture medium was then replaced and the cells cultured for a further 24 hours. […] The majority of cells (90%) detached from the culture and dish. Cad-11 was not detected in the remaining cells.

The test system of series [6] is Villous cytotrophoblasts isolated from the human term placenta, cultured 72 hours.
In another series the test system is human decidual cells. As to the kind of experiment: Effect on primary cultures of human decidual cells. To be noted: 0.5-5 M for 24 hours.
Series [7] has as its system PC3 cells treated with TGF-1. The series can be described thus: Effect of oligonucleotides on PC3 cells treated with TGF-1. To be noted: 0.5-5 M for 24 hours.
Series [8] concerns cad-11 mRNA in extravillous cytotrophoblasts. The series can be described thus: Northern blot of cad-11 mRNA in extravillous cytotrophoblasts cultured with TGF-1. It counts as cell-based, human. As to the method: (§2) First trimester placentae were obtained from elective terminations of pregnancies (8-13 weeks). Extravillous cytotrophoblasts were propagated from first trimester placental explants as described by Graham et al. Biology of Reproduction 46:561-572. The chorionic villi were washed thoroughly in Dulbecco's Modified Eagle's Medium (DMEM; Gibco BRL. Burlington. Ont.) containing 25 mM glucose, 25 mM Hepes and […] gentamicin. The villi were minced finely and plated in 25 cm^2 tissue culture flasks containing DMEM supplemented with antibiotics and 10% heat-inactivated fetal calf serum (FCS). The fragments of chorionic villi were allowed to adhere for […], after which the non-adherent material was removed. The villous explants were cultured for a further 10-14 days, with the culture medium being replaced every 3 days. The propagated extravillous cytotrophoblasts were separated from the villous explants by a trypsin digestion (0.125% trypsin in Ca^2−, Mg^2−-free PBS) and plated in 60 mm culture dishes containing DMEM supplemented with antibiotics and 10% FCS. The purity of the extravillous cytotrophoblast cultures was determined by cytokeratin immunostaining. Only cultures which were 100% positive for cytokeratin immunostaining were used.
Extravillous cytotrophoblasts grown to 70% confluence in DMEM containing 10% FCS, were washed with PBS and cultured in serum-free DMEM for a further 24 hours. […]
The Northern blots were probed with a human cad-11 cDNA probe according to the methods of MacCalman et al. (1992) [supra]. […] The absorbance values obtained for the cad-11 mRNA transcript were normalized relative to the 18 rRNA absorbance value.
The results are presented as the mean relative absorbance (±SE) for three independent experiments. Statistical differences between treatments were assessed by the analysis of variance (ANOVA). […] Significant differences between the means were determined using the least significant test.

Series [9] has as its system cad-11 protein in extravillous cytotrophoblasts. As to the kind of experiment: Western blot of cad-11 protein in extravillous cytotrophoblasts cultured with TGF-1. The series is classed as cell-based, human. Here is the method:
as §2
(§3) Extravillous cytotrophoblasts grown to 70% confluence in DMEM containing 10% FCS, were washed with PBS and cultured in serum-free DMEM for a further 24 hours. This culture medium was removed and after the cells had been washed twice with PBS, replaced with serum-free DMEM containing porcine TGF-1 (1 pg-10 ng/ml); Sigma Chemical Co., St. Louis. MO) or vehicle ([…]). The cells were fixed for morphological assessment and immunocytochemistry or harvested for Northern or Western blot analysis after 24 hours of culture in the presence or absence of TGF-1.
For Western blot analysis, the trophoblasts were incubated in 100 l of cell lysis buffer (Tris-HCl, pH 7.5 containing 0.5% Nonidet P40, 0.5 mM CaCl2 and 1.0 mM PMSF) at 4° C. for 30 minutes on a rocking platform. The cell lysates were centrifuges at 10.000×g for 20 minutes and the supernatant used in the Wester blot analyses. Aliquots were then taken from the samples and subjected to SDS-polyacrylamide gel electrophoresis under reducing conditions, as described by Laemmli (1970) Nature 227:680-685. The stacking gels contained 5% acrylamide and the separating eels were composed of 7.5% acrylamide. […]
The results are presented as the mean relative absorbance (±SE) for three independent experiments. Statistical differences between treatments were assessed by the analysis of variance (ANOVA). […] Significant differences between the means were determined using the least significant test. […]
(A western blot detects proteins with antibodies after separation by electrophoresis.)

For series [10], the system named is extravillous cytotrophoblasts. The series can be described thus: Immunocytochemistry for cad-11 and morphology of extravillous cytotrophoblasts cultured with TGF-1. The series is classed as cell-based, human. As to the method:
as §2, §3
The cells were washed twice in PBS and fixed in 0.1% glutaraldehyde/2% formaldehyde at 4° C. for 20 minutes Immunocytochemistry was performed using a mouse monoclonal antibody directed against human cytokeratin filaments 8 and 18 (Becton Dickson. San lose. CA) or a further monoclonal antibody directed against human cad-11 (C11-113E; ICOS Corporation. Bothell, Wash.; ATCC accession no. HB-12515) as described in (MacCalman et al. 1996 [supra] and Getsios et al. 1998 [supra]). Sequential incubations were performed according to the methods of Cartun and Pedersen (1989) J. of Histotechnology 12:273-280 and included 10% normal horse serum for 30 minutes, primary antiserum at 37° C. for 1 hours, secondary biotinylated antibody at 37° C. for 45 minutes, streptavidin-biotinylated horseradish peroxidase complex reagent at 37° C. for 30 minutes, and three five minutes washes in PBS. […]

Series [11] concerns cad-11 mRNA in PC3 prostate cancer cell line. As to the kind of experiment: Semiquantitative PCR of cad-11 mRNA in PC3 cells cultured with TGF-1. The series is classed as cell-based. The conditions noted are these: TGF-1 10 pg-1 ng/ml for 24 hours. From the text: (§4) However, low levels of the mRNA transcripts encoding E-cadherin and cad-11 were also detected in these cell lines.
(§5) The increase in cad-11 was concomitant with a decrease in cad-6 and N-cadherin mRNA levels.

Series [12] relates to cad-6 mRNA in PC3 prostate cancer cell line. As to the kind of experiment: PCR of cad-6 mRNA in PC3 cells cultured with TGF-1. The series is classed as cell-based. To be noted: TGF-1 10 pg-1 ng/ml for 24 hours.
Excerpt: as §4, §5

Series [13] has as its system N-cadherin mRNA in PC3 prostate cancer cell line. As to the kind of experiment: PCR of N-cadherin mRNA in PC3 cells cultured with TGF-1. The series is classed as cell-based. To be noted: TGF-1 10 pg-1 ng/ml for 24 hours.
Excerpt: as §4, §5

[14] abbreviates: 1 or 10 ng/ml of TGF-1, 24 hours, only these concentrations.
Setting [15] is: TGF-1 1 pg-10 ng/ml, 24 hours, dose-dependent manner.

Turning to “OB-3: sense oligonucleotide prepared as control: ATG ACA AAT GTT CGG CGG (SEQ ID NO:3) (sense ATGACAAATGTTCGGCGG; chemistry not given here) [reference compound]”, the “levels of the cad-11 RNA transcript” value in series [1] is reported as “did not effect”. In series [2], the “cad-6 mRNA levels” value is given as “did not effect”. Besides, the “N-cadherin mRNA levels” value in series [3] is “did not effect”. In addition, the “steroidogenic capacity (P4 concentrations in culture medium, RIA)” value in series [4] (0.5-5 M for 48 hours) was “did not have a significant effect”. In addition, the “cell number (Coulter cell counter)” value in series [4] (for 48 hours) is listed as “did not have a significant effect”. In addition, in series [5], the “composition of cellular structures formed (fusion)” value is “multinucleated syncytial structures”. Also, the “structures observed after wash-out” value in the series with villous cytotrophoblasts was “large syncytial structures”. Further, the “viability of syncytial structures (trypan blue)” value in [6] is listed as “viable”. Moreover, in series [6] (oligonucleotide added after 72 hours of culture, OB-1 for 24 hours), the “structures observed (phase contrast microscopy)” value was “Large syncytial structures”. Moreover, the “cell viability and number” value (in the series with human decidual cells; in series [7]) was “did not have a significant effect” throughout.

Take “TGF-1: porcine TGF-1 (transforming growth factor), Sigma Chemical Co.”: the “cad-11 mRNA levels at 1 or 10 ng/ml” value in [8] (setting [14]) is reported as “significant increase”. In series [8] (24 hours), the “TGF-1 concentration giving maximum cad-11 mRNA levels” value amounted to 10 ng/mL. In addition, in series [8] (setting [15]), the “cad-11 mRNA levels, dose dependence” value is “increased”. In addition, the “cad-11 protein expression levels at 1 or 10 ng/ml” value in [9] (setting [14]) is “significant increase”. Further, the “TGF-1 concentration giving maximum cad-11 expression levels” value in series [9] (24 hours) worked out at 10 ng/mL. For the same substance, in [9] (setting [15]), the “cad-11 protein expression levels, dose dependence” value was “increase”. In series [9] (porcine TGF-1 10 pg-10 ng/ml), the “cad-11 levels by Western blot, dose dependence” value was “increased”. Besides, in series [10] (0.1 ng/ml of TGF-1 for 12 hours), the cellular structures observed result is on record as “Large cellular aggregates”. In series [10] (10 ng/ml TGF-1, 24 hours), the “large cellular aggregates and multinucleated cells” value is recorded as “predominant”. For the same substance, the “number of cells expressing cad-11” value in series [10] (1 or 10 ng/ml of TGF-1, 24 hours, immunostaining) is given as “marked increase”. Further, the “cad-11 immunostaining of cell aggregates” value in series [10] (high concentrations of TGF-1) is given as “Intense immunostaining”. Also, the “Cad-11 mRNA levels” value in series [11] is recorded as “readily detectable”. In addition, the “cad-6 mRNA levels” value in series [12] was “decrease”. Besides, the “N-cadherin mRNA levels” value in series [13] is “decrease”.
